Measurements taken from patent EP0014443B1, “Dilutable alkyl-benzimidazolecarbamate formulation, process for its preparation and its use as biocide” (RIEDEL-DE HAEN AKTIENGESELLSCHAFT, priority 1979, dated 1980).
Converted amounts (≈) assume the structure as drawn. Read-outs that look alike come from different tables or passages of the source.

What was measured:
Solubility in solvents = format: physicochemical; settings: read-out: Löslichkeit
Excerpt: Zum Vergleich : Die Löslichkeit von BCM beträgt in Wasser 6 ppm und in Butanol 600 ppm.

holzverblauende Pilze = assay: Münden strip method (Mündener Streifenmethode) on wood against blue-stain fungi; settings: in usual wood preservative formulation (alkyd resin, Testbenzin 60); 25 GT product of Beispiel 1 in 1000 GT, or 0,25 % BCM as comparison
Excerpt: 25 GT eines Produktes gemäß Beispiel 1 werden zu 975 GT einer üblichen Holzschutzmittelformulierung gegeben, die zusammengesetzt ist aus 140 GT eines handelsüblichen Alkyldharzes, 4 GT Zinknaphthenat als Trockner, 4 GT eines handelsüblichen Hautverhütungsmittels, 30 GT Butyldiglykol und 797 GT Testbenzin 60.
Die Wirksamkeit der so biozid ausgerüsteten Holzschutzmittelformulierung gegen holzverblauende Pilze wird nach der Mündener Streifenmethode [H. Butin, Farbe und Lack, 71 (1965), 373] geprüft. Es ergibt sich eine bewuchsfreie Eindringtiefe von 3 bis 4 mm.
Zum Vergleich wird die oben angegebene übliche Holzschutzmittelformulierung mit 0,25 % Benzimidazolcarbaminsäuremethylester versetzt und unter gleichen Bedingungen geprüft. Es werden nur Eindringtiefen von 0,5 mm festgestellt.

SMILES: COC(=O)Nc1nc2ccccc2[nH]1 [II, Benzimidazolcarbaminsäuremethylester]
- solubility (Solubility in solvents; organic solvent or mixture, in Butanol): 600 µg/mL (≈ 3140 µM)
- solubility (Solubility in solvents; water, in Wasser): 6 µg/mL (≈ 31.4 µM)
- bewuchsfreie Eindringtiefe (holzverblauende Pilze): 0,5 mm
